Test results published in patent US20110064680A1, “NATURALLY DERIVED WATERPROOFING AGENTS FOR AQUEOUS-BASED PERSONAL CARE PRODUCTS” (Pinova, Inc., priority 2009, published 2011).

Assay: Solubility of solid sunscreen actives in the hydrogenated wood resins
Format: physicochemical
Conditions: solvent: hydrogenated wood resins
Text: During the making of the sunscreens, it was observed that the systems containing the hydrogenated wood resins more easily solubilzed the solid sunscreens (Oxybenzone and Avobenzone). […]

Structure (SMILES) | solubility of these actives in the hydrogenated wood resins [%]
COc1ccc(C(=O)CC(=O)c2ccc(C(C)(C)C)cc2)cc1 [Avobenzone] | 13
COc1ccc(C(=O)c2ccccc2)c(O)c1 [Oxybenzone] | 24
